Among the test systems are SNB-75 CNS; NCI-H23 lung; KM12 colon; MCF7 breast; SF-295 CNS; HS 578T breast; COLO 205 colon; NCI-H226 lung; ACHN renal; BT-549 breast.
Holding throughout (assay): NCI anticancer screen, dose series, 48 h

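1) Cells in 96-well plates. 2) Compound, 48 h, 5 concentrations. 3) Linear interpolation between surrounding doses. 4) Unreached endpoint = highest concentration. GI50 marks 50% less growth. Definition used: TGI = concentration required for complete inhibition of growth.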

As for `C=CC1C(CC2OC(CO)C(O)C(O)C2O)OC=C2C(=O)OCCC21O` (centres undefined), the GI50 with SNB-75 CNS is 1.84 µM; in the test with NCI-H23 lung, 24.9 µM; in the test on KM12 colon, 3.05 µM; in the test on MCF7 breast it was 21.6 µM; in the test on SF-295 CNS it was 23.5 µM; in the test with HS 578T breast it was 34.6 µM. Moreover, the GI50 in the test with COLO 205 colon is 19.9 µM; in the test with NCI-H226 lung, 20.9 µM; with ACHN renal, 29.8 µM. In addition, the TGI is 18.6 µM in the test with SNB-75 CNS; 61.9 µM in the test with NCI-H23 lung; 30.1 µM in the test on KM12 colon; over 100 µM in the test on MCF7 breast; 62.5 µM in the test on SF-295 CNS; over 100 µM with HS 578T breast. For the same compound, the TGI is 45.2 µM in the test on COLO 205 colon, 76.5 µM in the test on NCI-H226 lung and over 100 µM with ACHN renal.

On to `CN(C)CCN1C(=O)c2cccc3c(/C=C/CN4C(=O)c5cccc6cccc(c56)C4=O)ccc(c23)C1=O`, for which the GI50 is over 100 µM in the test with NCI-H23 lung; over 100 µM in the test on KM12 colon; 43.5 µM in the test with BT-549 breast; 21.1 µM in the test with MCF7 breast; over 100 µM in the test on SF-295 CNS; 13.8 µM with HS 578T breast. The GI50 with COLO 205 colon was over 100 µM; with NCI-H226 lung, 1.92 µM; in the test on ACHN renal, 28.3 µM. Further, the TGI was over 100 µM in the test on NCI-H23 lung; over 100 µM with KM12 colon; over 100 µM in the test with BT-549 breast; 62.4 µM with MCF7 breast; over 100 µM in the test with SF-295 CNS; 35.7 µM in the test on HS 578T breast. Moreover, the TGI was over 100 µM in the test with COLO 205 colon, 35.4 µM with NCI-H226 lung and over 100 µM in the test on ACHN renal.

Turning to `COc1cc(C2c3cc4c(cc3OC(O)C2C)OCO4)cc(OC)c1OC` (centres undefined), the TGI was 4.93 µM in the test with SNB-75 CNS; 27.2 µM in the test on KM12 colon; over 59.2 µM with BT-549 breast; over 55.9 µM in the test on MCF7 breast; over 48.8 µM in the test on SF-295 CNS; over 100 µM with HS 578T breast. Besides, the TGI in the test with NCI-H226 lung is 7.33 µM; in the test with ACHN renal, over 88.1 µM.

On to `CC(C)[P+](c1ccccc1)(c1ccccc1)c1ccccc1`, for which the GI50 is 4.81 µM in the test on SNB-75 CNS; 2.57 µM in the test with KM12 colon; 5.55 µM in the test with BT-549 breast; 3.69 µM in the test on MCF7 breast; 7.41 µM in the test with SF-295 CNS; 13.4 µM with HS 578T breast. Further, the GI50 is 3.87 µM in the test with COLO 205 colon, 5.69 µM in the test on NCI-H226 lung and 86.8 µM with ACHN renal. In addition, the TGI with SNB-75 CNS was 66 µM; in the test with KM12 colon, over 100 µM; in the test on BT-549 breast, over 100 µM; with MCF7 breast, over 100 µM; in the test with SF-295 CNS, 36.6 µM; with HS 578T breast it was over 100 µM. In addition, the values for the TGI with COLO 205 colon, in the test on NCI-H226 lung and in the test with ACHN renal were 16 µM, over 100 µM and over 100 µM, respectively.

As for `CC(C)=Cc1cc(C)c2ccc(C)c3c2c1C(C)=C(O)C3=O`, the GI50 in the test on SNB-75 CNS is over 100 µM; in the test on KM12 colon, 29.8 µM; in the test with BT-549 breast it was 28.7 µM; in the test on MCF7 breast, 53.5 µM; in the test on SF-295 CNS it was 31.4 µM; in the test on HS 578T breast it was 25.7 µM. Also, the GI50 is 17.1 µM in the test on COLO 205 colon, 30.8 µM with NCI-H226 lung and over 100 µM in the test on ACHN renal. In addition, the TGI with SNB-75 CNS was over 100 µM; in the test with KM12 colon, over 100 µM; in the test on BT-549 breast, 89.5 µM; in the test on MCF7 breast it was over 100 µM; in the test on SF-295 CNS, 94.9 µM; in the test on HS 578T breast, 74.9 µM. The TGI in the test on COLO 205 colon is 41.6 µM; in the test with NCI-H226 lung, 81 µM; with ACHN renal it was over 100 µM.

Take `CC(C)=Cc1cc(CCC/C(C)=C/Cc2c(O)cc(C)c(C(=O)O)c2O)co1`: the TGI with SNB-75 CNS, in the test with NCI-H23 lung, in the test with KM12 colon, in the test on BT-549 breast, in the test on MCF7 breast and in the test with SF-295 CNS was over 100 µM in each case. In addition, the TGI with HS 578T breast, in the test with COLO 205 colon and with ACHN renal was over 100 µM in each case.

On to `O=C1OCC2=C1C(c1cccc(C(F)(F)F)c1)c1cc3c(cc1N2CCO)OCCO3` (centres undefined), for which the GI50 in the test with NCI-H23 lung is 1.78 µM; in the test on KM12 colon, 1.08 µM; in the test with BT-549 breast, 1.81 µM; in the test with MCF7 breast, 1.09 µM; with SF-295 CNS, 0.895 µM; in the test on HS 578T breast it was 0.915 µM. For the same compound, the figures for the GI50 in the test on COLO 205 colon, in the test on NCI-H226 lung and with ACHN renal were 0.868 µM, over 33.3 µM and 2.83 µM, respectively. Also, the TGI with NCI-H23 lung, with KM12 colon, in the test on BT-549 breast, in the test on MCF7 breast, in the test with SF-295 CNS and in the test on HS 578T breast was over 33.3 µM each time. For the same compound, the values for the TGI in the test on COLO 205 colon, with NCI-H226 lung and in the test on ACHN renal were 2.48 µM, over 33.3 µM and over 33.3 µM, respectively.

Consider `CC12OC(C(=O)C13CC3)C1C(=O)c3c(O)ccc(O)c3C(=O)C12` (centres undefined), for which the GI50 in the test with SNB-75 CNS is 20.6 µM; with NCI-H23 lung it was 14.4 µM; in the test with KM12 colon it was 23.5 µM; with BT-549 breast, 22.1 µM; in the test with MCF7 breast it was 11.2 µM; with HS 578T breast, 16.3 µM. Moreover, the values for the GI50 in the test with COLO 205 colon and in the test with ACHN renal were 15.4 µM and 3.54 µM, respectively. In addition, the TGI in the test on SNB-75 CNS is 40.8 µM; in the test with NCI-H23 lung, 31.1 µM; with KM12 colon, 90.1 µM; in the test on BT-549 breast, 51.8 µM; in the test with MCF7 breast it was 26.3 µM; in the test with HS 578T breast it was 46.2 µM. In addition, the TGI with COLO 205 colon was 35.8 µM; with ACHN renal it was 15.2 µM.

`C=C(C(=O)OC)[C@@H]1CC2OC1C(=O)C(C)CCC/C(C)=C/CC[C@@]2(C)O` (some centres undefined): the GI50 with NCI-H23 lung is 14 µM; with KM12 colon, 23.8 µM; in the test on BT-549 breast it was 25.2 µM; in the test with MCF7 breast, 43.5 µM; in the test with SF-295 CNS, 39.5 µM; in the test on HS 578T breast, 36.9 µM. Moreover, the GI50 is 25.1 µM in the test on COLO 205 colon and 18.6 µM in the test on ACHN renal. The TGI with NCI-H23 lung was 27.9 µM; with KM12 colon it was over 100 µM; in the test on BT-549 breast, 55.7 µM; with MCF7 breast, over 100 µM; in the test on SF-295 CNS it was over 100 µM; with HS 578T breast it was over 100 µM. Further, the TGI was determined as 78.7 µM in the test on COLO 205 colon and 42.6 µM with ACHN renal.

(Values after PubChem BioAssay (NCI).)
